Source: US20210324359A1, “USE OF GRAM-NEGATIVE LYSIN-ANTIMICROBIAL PEPTIDE (AMP) POLYPEPTIDE CONSTRUCTS IN TREATING ENDOCARDITIS” (priority 2020, published 2021)

Tests used:
Assay type in all cases: cell-based, Pseudomonas aeruginosa
[1] = system: carbapenem-resistant P. aeruginosa strains; experiment: Resensitization of carbapenem-resistant strains, combinations with imipenem or meropenem (Tables 18-22)
Experimental: Such resensitization may be determined by combining the present lysins or lysin-AMP polypeptide constructs with an antibiotic in a checkerboard assay as described herein. Antibiotic-resistant bacteria, such as carbapenem-resistant P. aeruginosa, are added to the lysin or lysin-AMP polypeptide construct combination. […] See Clinical and Laboratory Standards Institute (CLSI), CLSI. […] M100 Performance Standards for Antimicrobial Susceptibility Testing; 29th Edition. Clinical and Laboratory Standards Institute, Wayne, Pa., which is herein incorporated by reference in its entirety.
Up to seven carbapenem-resistant isolates were assessed. […] See Clinical and Laboratory Standards Institute (CLSI), CLSI. […] M100 Performance Standards for Antimicrobial Susceptibility Testing; 29th Edition. Clinical and Laboratory Standards Institute, Wayne, Pa.

P. aeruginosa = experiment: MIC, modified CLSI broth microdilution in CAA medium without or with […] human serum (Table 4); conditions: for CAA MIC: CAA medium, no human serum; for CAA/HuS MIC: CAA supplemented with […] human serum; for effect of the structural modification on activity (as assessed by MIC) versus the parent lysin: CAA with and without human serum, parent GN316 or GN37; as to CAA/HuS MIC: CAA supplemented with 2.5% human serum
Source text: 2015. […] Clinical and Laboratory Standards Institute, Wayne, Pa.

[2] = system: P. aeruginosa strain WC-453; experiment: Time-kill assay in HEPES or CAA with 25% human serum (Tables 7, 8); conditions: lysin 10 μg/ml, WC-453; for HEPES (Log10 CFU/mL), 1 hr / HEPES (Log10 CFU/mL), 3 hr: 25 mM HEPES pH 7.4; for CAA/HuS (Log10 CFU/mL), 1 hr / CAA/HuS (Log10 CFU/mL), 3 hr: CAA + 25% human serum
Experimental: Exponential phase bacteria were then pelleted and resuspended in 1/5 culture volume of 25 mM HEPES, pH 7.4 before a final adjustment to an optical density corresponding to a McFarland value of 0.5. […] All treatments were incubated at 37° C. with aeration. At time points before the addition of lysin (or buffer control) and at 1 hour and 3 hours intervals thereafter, culture samples were removed for quantitative plating on CAA agar plates.

[3] = in combination with GN121, isolate PA19
[4] = in combination with GN121, isolate PA20
[5] = in combination with GN121, isolate PA21
[6] = in combination with GN121, isolate PA22
[7] = in combination with GN121, isolate PA23
[8] = in combination with GN121, isolate PA24
[9] = in combination with GN123, isolate PA19
[10] = in combination with GN123, isolate PA20
[11] = in combination with GN123, isolate PA21
[12] = in combination with GN123, isolate PA22
[13] = in combination with GN123, isolate PA23
[14] = in combination with GN123, isolate PA24
[15] = in combination with GN123, isolate WC-452

Molecule: C[C@@H](O)[C@H]1C(=O)N2C(C(=O)O)=C(SCCN=CN)C[C@H]12 [Imipenem, imipenem, reference compound]
- antibiotic MIC, Combination [1, 3]: 1 µg/mL
- carbapenem susceptibility class, Combination [1, 3]: (S) ((S) = sensitive)
- antibiotic MIC, Combination [1, 4]: 0.5 µg/mL
- carbapenem susceptibility class, Combination [1, 4]: (S) ((S) = sensitive)
- antibiotic MIC, Combination [1, 5]: 1 µg/mL
- carbapenem susceptibility class, Combination [1, 5]: (S) ((S) = sensitive)
- antibiotic MIC, Combination [1, 6]: 2 µg/mL
- carbapenem susceptibility class, Combination [1, 6]: (S) ((S) = sensitive)
- antibiotic MIC, Combination [1, 7]: 0.125 µg/mL
- carbapenem susceptibility class, Combination [1, 7]: (S) ((S) = sensitive)
- antibiotic MIC, Combination [1, 8]: 1 µg/mL
- carbapenem susceptibility class, Combination [1, 8]: (S) ((S) = sensitive)
- antibiotic MIC, Combination [1, 9]: 0.5 µg/mL
- carbapenem susceptibility class, Combination [1, 9]: (S) ((S) = sensitive)
- antibiotic MIC, Combination [1, 10]: 1 µg/mL
- carbapenem susceptibility class, Combination [1, 10]: (S) ((S) = sensitive)
- antibiotic MIC, Combination [1, 11]: 0.5 µg/mL
- carbapenem susceptibility class, Combination [1, 11]: (S) ((S) = sensitive)
- antibiotic MIC, Combination [1, 12]: 2 µg/mL
- carbapenem susceptibility class, Combination [1, 12]: (S) ((S) = sensitive)
- antibiotic MIC, Combination [1, 13]: 0.25 µg/mL
- carbapenem susceptibility class, Combination [1, 13]: (S) ((S) = sensitive)
- antibiotic MIC, Combination [1, 14]: 2 µg/mL
- carbapenem susceptibility class, Combination [1, 14]: (S) ((S) = sensitive)
- antibiotic MIC, Combination [1, 15]: 1 µg/mL
- carbapenem susceptibility class, Combination [1, 15]: (S) ((S) = sensitive)
- carbapenem susceptibility class, Combination ([1]; in combination with GN351, vs. WC-452): (S) ((S) = sensitive)
- carbapenem susceptibility class, Combination ([1]; in combination with GN370, vs. WC-452): (S) ((S) = sensitive)
- carbapenem susceptibility class, Combination ([1]; in combination with GN428, vs. WC-452): (S) ((S) = sensitive)
- carbapenem susceptibility class, antibiotic Alone ([1]; isolate PA19): R ((R) = resistant)
- carbapenem susceptibility class, antibiotic Alone ([1]; isolate PA20): R ((R) = resistant)
- carbapenem susceptibility class, antibiotic Alone ([1]; isolate PA21): R ((R) = resistant)
- carbapenem susceptibility class, antibiotic Alone ([1]; isolate PA22): R ((R) = resistant)
- carbapenem susceptibility class, antibiotic Alone ([1]; isolate PA23): R ((R) = resistant)
- carbapenem susceptibility class, antibiotic Alone ([1]; isolate PA24): R ((R) = resistant)
- carbapenem susceptibility class, antibiotic Alone ([1]; isolate WC-452): R ((R) = resistant)

B1: GN223: lysin-AMP construct: RPP moiety, IGEM linker and amurin peptide Gkh2 C-terminal to GN37 lysin (SEQ ID NO: 12) (protein)
chain: MTYTLSKRSLDNLKGVHPDLVAVVHRAIQLTPVDFAVIEGLRSVSRQKELVAAGASKTMNSRHLTGHAVDLAAYVNGIRWDWPLYDAIAVAVKAAAKELGVAIVWGGDWTTFKDGPHFELDRSKYRPPGGGSGGGGSGGGSSKKASRKSFTKGAVKVHKKNVPTRVPMRGGIRL
- CAA MIC (P. aeruginosa): 32000 µg/mL
- CAA/HuS MIC (P. aeruginosa): 2000 µg/mL
- effect of the structural modification on activity (as assessed by MIC) versus the parent lysin (P. aeruginosa): very strong activity in the presence of human serum

B2: GN65: Lysin GN65, used as control (protein)
chain: MAILKIGSKGLEVKNLQTSLNKIGFNLVADGIFGKATDNAVRAVQAGAGLVVDGIAGPKTMYAIRNAGESHQDHLTEADLIDAARELSVDLASIKAVNQVESRGTGFTKSGKIKTLFERHIMYKKLNAKFGQAKANALAQLYPTLVNAKAGGYTGGDAELERLHGAIAIDKDCAYESASYGLFQIMGFNCVICGYDNAEEMFNDFLTGERAQLMAFVKFIKADANLWKALKDKNWAEFARRYNGPAYAQNQYDTKLAAAYKSFS
modifications: (1)..(264) GN316 lysin
- HEPES (Log10 CFU/mL), 1 hr [2]: 5.7 Log10 CFU/mL
- HEPES (Log10 CFU/mL), 3 hr [2]: <3.7 Log10 CFU/mL
- CAA/HuS (Log10 CFU/mL), 1 hr [2]: 6.0 Log10 CFU/mL
- CAA/HuS (Log10 CFU/mL), 3 hr [2]: <3.7 Log10 CFU/mL

B3: GN81: dispersin B, an enzyme that degrades biofilm (SEQ ID NO: 226); control (protein, listed as Actinobacillus pleuropneumoniae)
chain: MDLPKKESGLTLDIARRFYTVDTIKQFIDTIHQAGGTFLHLHFSDHENYALESSYLEQREENATEKNGTYFNPKTNKPFLTYKQLNEIIYYAKERNIEIVPEVDSPNHMTAIFDLLTLKHGKEYVKGLKSPYIAEEIDINNPEAVEVIKTLIGEVIYIFGHSSRHFHIGGDEFSYAVENNHEFIRYVNTLNDFINSKGLITRVWNDGLIKNNLSELNKNIEITYWSYDGDAQAKEDIQYRREIRADLPELLANGFKVLNYNSYYLYFVPKSGSNIHNDGKYAAEDVLNNWTLGKWDGKNSSNHVQNTQNIIGSSLSIWGERSSALNEQTIQQASKNLLKAVIQKTNDPKSH
- HEPES (Log10 CFU/mL), 1 hr [2]: 7.4 Log10 CFU/mL
- HEPES (Log10 CFU/mL), 3 hr [2]: 6.5 Log10 CFU/mL
- CAA/HuS (Log10 CFU/mL), 1 hr [2]: 6.7 Log10 CFU/mL
- CAA/HuS (Log10 CFU/mL), 3 hr [2]: 7.0 Log10 CFU/mL

B4: GN40: lysin obtained from Pseudomonas putida strain PA14H7 (SEQ ID NO: 210) (protein, listed as Micavibrio aeruginosavorus)
chain: MFRPSYILPGVAAVMLLASTAAHAAGYEWKRVDYQYLQSVSEKERGMLRIYKDYEEREPCQNYRELPPEVKYVDCKLYHRVAIPDPPPPPAPPPAPEPPKVVSSYEIFFPLDSTALDLQANAMVDKAAADIALYQPSTVIVAGYTDTSGAADYNDQLSANRAMAVSAALSQRGIPNTAMDLEAHGQNDLKVPTADDVHEPQNRRTVIHFMK
- HEPES (Log10 CFU/mL), 1 hr [2]: 7.0 Log10 CFU/mL
- HEPES (Log10 CFU/mL), 3 hr [2]: 5.7 Log10 CFU/mL
- CAA/HuS (Log10 CFU/mL), 1 hr [2]: 6.6 Log10 CFU/mL
- CAA/HuS (Log10 CFU/mL), 3 hr [2]: 6.7 Log10 CFU/mL

B5: GN239: lysin-AMP construct: IGEM linker and RI18 peptide C-terminal to GN37 lysin (SEQ ID NO: 14) (protein)
chain: MTYTLSKRSLDNLKGVHPDLVAVVHRAIQLTPVDFAVIEGLRSVSRQKELVAAGASKTMNSRHLTGHAVDLAAYVNGIRWDWPLYDAIAVAVKAAAKELGVAIVWGGDWTTFKDGPHFELDRSKYGGGSGGGGSGGGSRKKTRKRLKKIGKVLKWI
- CAA MIC (P. aeruginosa): 4000 µg/mL
- CAA/HuS MIC (P. aeruginosa): 250 µg/mL
- effect of the structural modification on activity (as assessed by MIC) versus the parent lysin (P. aeruginosa): very strong activity in the presence of human serum

B6: GN243: lysin-AMP construct: PP moiety, IGEM linker and TI15 peptide C-terminal to GN37 lysin (SEQ ID NO: 16) (protein)
chain: MTYTLSKRSLDNLKGVHPDLVAVVHRAIQLTPVDFAVIEGLRSVSRQKELVAAGASKTMNSRHLTGHAVDLAAYVNGIRWDWPLYDAIAVAVKAAAKELGVAIVWGGDWTTFKDGPHFELDRSKYRKKTRKRLKKIGKVLKWIPPGGGSGGGGSGGGSTRKRLKKIGKVLKWI
- CAA MIC (P. aeruginosa): 32000 µg/mL
- CAA/HuS MIC (P. aeruginosa): 500 µg/mL
- effect of the structural modification on activity (as assessed by MIC) versus the parent lysin (P. aeruginosa): very strong activity in the presence of human serum
